The values below come from paper PMC11091879, “Inhibitors of the Thioesterase Activity of Mycobacterium tuberculosis Pks13 Discovered Using DNA-Encoded Chemical Library Screening” (ACS Infectious Diseases, 2024).

The test system of one series is Mtb. The settings on record: in vivo; cited from earlier work.
A further series deals with Mtb H37Rv. Set-up: species or system Mycobacterium tuberculosis. The settings on record: in vivo, po.
For series [1], the target named is T1, Pks13-TE (Mycobacterium tuberculosis, UniProt I6X8D2). Kind of series: biochemical.
Series [2] has as its target T1, Pks13-TE. Kind of series: biochemical. Format: binding.
A further series deals with WT H37Rv. Kind of series: microbe, parasite or virus in culture. Format: cell-based, Mycobacterium tuberculosis. The settings on record: for MIC: Mycobacterium tuberculosis, H37RV.
The test system of series [3] is pks13-TetON -ATc (hypomorph). Format: cell-based, Mycobacterium tuberculosis.
The test system of series [4] is pks13-TetON +ATc (Pks13-hypermorph). Format: cell-based, Mycobacterium tuberculosis.
A short description of series [5]: Mouse pharmacokinetics studies. The following applies: female, CD-1, mouse, plasma.
For series [6] the following is noted: in vivo, po.
Series [7] in a line: Metabolic stability in mouse liver microsomes (MLMs). On the technique in general: Liver microsomes are a subcellular fraction often used to study metabolism.
Series [8] is described as follows: in vitro. The settings on record: human, plasma.
A short description of series [9]: in vitro. The settings on record: mouse, plasma.
A further series in a line: in vivo. The settings on record: female, CD-1, mouse.
Series [10] can be described thus: in vitro. The settings on record: mouse, microsomes.
[11] abbreviates: read-out: MIC (whole cell activity).

In brackets after ≈: the same amount, converted by molar mass. Where two headings read alike, the source gives them in different places.

T1 sequence (I6X8D2 1451-1733 limits assumed): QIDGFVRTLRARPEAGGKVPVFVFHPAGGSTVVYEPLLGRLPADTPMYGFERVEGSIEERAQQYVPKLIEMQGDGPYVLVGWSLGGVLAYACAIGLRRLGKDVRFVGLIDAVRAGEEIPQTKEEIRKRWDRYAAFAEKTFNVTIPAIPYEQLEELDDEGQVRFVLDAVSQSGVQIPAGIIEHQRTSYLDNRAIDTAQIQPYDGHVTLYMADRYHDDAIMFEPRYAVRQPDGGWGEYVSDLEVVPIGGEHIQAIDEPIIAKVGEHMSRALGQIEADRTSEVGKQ

As to `NNC(=O)c1ccncc1` [INH, Isoniazid, reference compound], the “reduction of the burden” value in the series on Mtb is 1 log10. In addition, in the series on Mtb H37Rv (25 mg/kg), the “reduction in CFU (lung)” value was about 1.5 log10.

In the case of `CC(=O)N1CCN(C(=O)C2CCN(c3nc(C)cc(C(=O)NCc4ccccc4)n3)CC2)CC1` [X13045], the IC50 – broadly, the midpoint of a concentration-inhibition curve – at Pks13-TE [1] was 15000 nM; against Pks13-TE [2] (IC50 (uM)), 15.1 µM. Further, the MIC in the series with WT H37Rv (read-out: MIC (Mtb inhibition)), in the series on WT H37Rv (setting [11]) and in the series on WT H37Rv (read-out: WT H37Rv MIC (uM)) was 390 µM (≈ 181 µg/mL) throughout. In series [3], the “Hypomorph MIC fold shift (WT/-ATc)” value is listed as 1.5 fold.

Turning to `COCC1(CN(C)C(=O)c2ccc(CCn3cc(-c4ccc(-c5cc(OC)ccc5OC)nc4)nn3)cc2)CC1` [X20403], the IC50 against Pks13-TE [1] amounted to 57 nM; at Pks13-TE [2] (IC50 in the TAMRA binding assay) it was 0.5 µM. The “Hypermorph MIC fold shift (+ATc/WT)” value in series [4] worked out at 2.3 fold. Besides, the MIC in the series with WT H37Rv (read-out: MIC (Mtb inhibition)) and with WT H37Rv (read-out: WT H37Rv MIC (uM)) was 0.05 µM (≈ 0.0271 µg/mL) throughout. For the same compound, the “Hypomorph MIC fold shift (WT/-ATc)” value in series [3] is 0.88 fold.

Take `COc1ccc(OC)c(-c2ccc(-c3cn(CCc4ccc(C(=O)N(C)C)cc4)nn3)cn2)c1` [X20404]: in [5] (intravenous, 5 mg/kg), the half-life – broadly, the time needed for the level to fall by half in the phase considered – was 36 min. In addition, the AUC(0-t) – broadly, the area under the concentration-time curve up to a stated or last time point – in series [5] (iv, 5 mg/kg) was found to be 13500 ng·h/mL; in series [5] (po, 25 mg/kg), 3700 ng·h/mL; in series [5] (po, 50 mg/kg) it was 14200 ng·h/mL; in series [5] (po, 100 mg/kg), 33300 ng·h/mL; in series [5] (po, 200 mg/kg), 98100 ng·h/mL. Also, the “fold higher maximum concentration in blood compared to three other compounds” value in series [6] (female, CD-1, mouse, 25 mg/kg) is reported as about 10 fold. The “plasma concentrations relative to MIC” value in series [6] (mouse, 200 mg/kg) is “above the MIC”. Besides, the “reduction of the lung CFU compared to untreated control” value is recorded as “approximately 0.4 log10” in the series on Mtb H37Rv (100 mg/kg) and 0.8 log10 with Mtb H37Rv (200 mg/kg). The figures for the IC50 against Pks13-TE [2] (IC50 (enzyme inhibition)) and against Pks13-TE [2] (IC50 (uM)) were 0.4 µM and 0.43 µM, respectively. In addition, the half-life at 5 μM in series [7] was determined as 26.8 min. In series [4], the “Hypermorph MIC fold shift (+ATc/WT)” value came out at 2.3 fold. For the same compound, the fraction unbound – broadly, the share of the substance not bound to proteins or other matrix – at 4 h, 10000 ng/mL in the series “in vitro [8]” is 0.044; in “in vitro [9]” (mouse PPB (%)) it was 0.023; in “in vitro [9]” (plasma protein binding) it was 0.02. Besides, the Vd (in general, a proportionality between amount in the body and measured concentration, not a real space) in the series “in vivo” is 0.3 L/kg. Also, the bioavailability (commonly the share of a dose that reaches the circulation, judged against a reference dose that is usually intravenous) in the series “in vivo” is 8%. The clearance – broadly, a measure of how efficiently the substance is removed, as volume per time – in “in vivo” stood at 6.2 mL/min/kg. Also, the MIC with WT H37Rv (read-out: MIC (Mtb inhibition)), in the series with WT H37Rv (setting [11]) and in the series with WT H37Rv (read-out: WT H37Rv MIC (uM)) was 0.25 µM (≈ 0.114 µg/mL) each time. The microsomal CLint (commonly the rate of metabolic loss divided by the concentration) at 5 μM in “in vitro [10]” amounted to 26.2 µL/min/mg. The “Hypomorph MIC fold shift (WT/-ATc)” value in series [3] was 2.9 fold.

Take `Cc1cc(C(=O)NCc2ccccc2)nc(N2CCC(C(=O)N3CCN(C(=O)c4cc5c(Cl)cccn5n4)CC3)CC2)n1` [X22324]: the IC50 on Pks13-TE [2] (read-out: IC50) is 0.53 µM. Further, the “Hypermorph MIC fold shift (+ATc/WT)” value in series [4] is listed as 3.7 fold. In addition, the “WT H37Rv MIC” value in the series with WT H37Rv turned out to be 0.22 µM. For the same compound, the “Hypomorph MIC fold shift (WT/-ATc)” value in series [3] is 3.3 fold.

As to `Cc1cc(C(=O)NCc2ccccc2)nc(N2CC(C(=O)N3CCN(C(=O)c4ccc5nc(C)ccc5c4)CC3)C2)n1` [X22327], the IC50 on Pks13-TE [2] (read-out: IC50) stood at 0.56 µM. Moreover, in series [4], the “Hypermorph MIC fold shift (+ATc/WT)” value is recorded as 3.6 fold. Besides, the MIC with WT H37Rv (read-out: WT H37Rv MIC) stood at 1.3 µM (≈ 0.733 µg/mL). Moreover, in series [3], the “Hypomorph MIC fold shift (WT/-ATc)” value worked out at 3.1 fold.
